Test results from US4172134A, “Benzo [B]thienopyridines, process for their preparation and therapeutic compositions containing same” (Parcor, priority 1977, dated 1979).

Columns and labels:
[1] = system: A.D.P. induced blood-platelet aggregation; test: Determination of A.D.P. induced blood-platelet aggregation; format: in vivo; details: Wistar rats, 100 mg/kg orally, 3 hours after treatment, 10 μM A.D.P. solution, vs reference group, groups of 20 rats; for inhibition at 100 mg/kg: Rattus norvegicus, po, read-out: Percent inhibition of blood-platelet aggregation, A.D.P.
Experimental: (§1) 1. Blood-platelet aggregation inhibiting activity
(§2) Blood is taken from the jugular vein of Wistar rats. From this citrated blood and after centrifugation, is reconstituted a plasma containing 600,000±20,000 blood-platelets per mm3 which will be used in all aggregation determinations.
(§3) 0.4 ml of plasma is placed in a siliconized tube provided with a magnet bar which is also siliconized. The tube is introduced into an aggregometer connected with an apparatus which records optical density variations. When light transmission has attained a stable value, 0.5 ml of a solution containing 10 μM A.D.P. (Adenosine-Di-Phosphate) are introduced into the tube.
(§4) Blood-platelet aggregation then produces an increase of light transmission followed by a decrease subsequent to the deaggregation phase.
(§5) The maximal optical density variation thus determined characterizes the intensity of the aggregation.
(§6) Different groups of 20 rats each are used, each group being orally administered a test derivative at a dosage of 100 mg/kg.

[2] = system: collagen-induced blood-platelet aggregation; test: Determination of collagen-induced blood-platelet aggregation; format: in vivo; details: Wistar rats, 100 mg/kg orally, 3 hours after treatment, collagen solution (bovine tendon extract), vs reference group, groups of 20 rats; for inhibition at 100 mg/kg: Rattus norvegicus, po, read-out: Percent inhibition of blood-platelet aggregation, Collagen
Experimental: as §1, §2, §3, §4, §5
The A.D.P. solution is substituted with a collagen solution (bovine tendon extract).
as §6

Row | SMILES | inhibition at 100 mg/kg [1] [%] | inhibition at 100 mg/kg [2] [%] | Percent inhibition of blood-platelet aggregation, A.D.P. [1] [%] | Percent inhibition of blood-platelet aggregation, Collagen [2] [%]
1 | CC1NCc2c(sc3ccc(Cl)cc23)C1c1ccccc1 (centres unmarked) [Example 1, 8-Chloro-3-methyl-4-phenyl-1,2,3,4-tetrahydro-benzo(b)-thieno[3,2-c]pyridine] | 62.1 | 91.4 |  | 
2 | CC1NCc2c(sc3ccccc23)C1c1ccccc1 (centres unmarked) [Example 2, 3-Methyl-4-phenyl-1,2,3,4-tetrahydro-benzo(b)-thieno[3,2-c]-pyridine] | 61.7 | 93.8 |  | 
3 | Clc1ccc2sc3c(c2c1)CNCC3c1ccccc1 (centres unmarked) [Example 3, 8-Chloro-1-phenyl-1,2,3,4-tetrahydro-benzo(b)thieno[3,2-c]-pyridine] | 62.9 | 90.5 |  | 
4 | c1ccc(C2CNCc3c2sc2ccccc32)cc1 (centres unmarked) [Example 4, 4-Phenyl-1,2,3,4-tetrahydro-benzo(b)thieno[3,2-c]pyridine] | 61.5 | 90.8 |  | 
5 | CC1C(c2ccccc2)c2sc3ccc(Cl)cc3c2CN1C (centres unmarked) [Example 5, 8-Chloro-2,3-dimethyl-4-phenyl-1,2,3,4-tetrahydro-benzo(b)-thieno[3,2-c]pyridine] | 60.8 | 91.2 |  | 
6 | CC1C(c2ccccc2)c2sc3ccc(Cl)cc3c2CN1Cc1ccccc1Cl (centres unmarked) [Example 6, 8-Chloro-2-o-chlorobenzyl-3-methyl-4-phenyl-1,2,3,4-tetrahydro-benzo(b)thieno[3,2-c]pyridine] | 61.2 | 94.4 |  | 
7 | CC1C(c2ccccc2)c2sc3ccc(Cl)cc3c2CN1Cc1ccccc1 (centres unmarked) [Example 7, 2-Benzyl-8-chloro-3-methyl-4-phenyl-1,2,3,4-tetrahydro-benzo(b)thieno[3,2-c]pyridine] | 63 | 95.1 |  | 
8 | Cc1ccc(N2Cc3c(sc4ccccc34)C(c3ccccc3)C2)cc1 (centres unmarked) [Example 8, 4-Phenyl-2-p.tolyl-1,2,3,4-tetrahydro-benzo(b)-thieno[3,2-c]-pyridine] |  |  | 61.4 | 90.6
9 | COc1cccc(CN2Cc3c(sc4ccccc34)C(c3ccccc3)C2C)c1 (centres unmarked) [Example 9, 3-Methyl-P2-m.methoxybenzyl-4-phenyl-1,2,3,4-tetrahydro-benzo(b)thieno[3,2-c]pyridine] | 61.8 | 91.2 |  | 
10 | COc1cc(CN2Cc3c(sc4ccc(Cl)cc34)C(c3ccccc3)C2C)cc(OC)c1OC (centres unmarked) [Example 10, 8-Chloro-2-(3,4,5-trimethoxy-benzyl)-3-methyl-4-phenyl-1,2,3,4-tetrahydro-benzo(b)thieno[3,2-c]pyridine] | 60.2 | 94.5 |  | 
11 | O=[N+]([O-])c1ccccc1CN1Cc2c(sc3ccc(Cl)cc23)C(c2ccccc2)C1 (centres unmarked) [Example 11, 8-Chloro-2-o.nitrobenzyl-4-phenyl-1,2,3,4-tetrahydro-benzo(b)thieno[3,2-c]pyridine] | 62.5 | 92.7 |  | 
12 | N#Cc1ccccc1CN1Cc2c(sc3ccccc23)C(c2ccccc2)C1 (centres unmarked) [Example 12, 2-o.Cyanobenzyl-4-phenyl-1,2,3,4-tetrahydro-benzo(b)thieno-[3,2-c]pyridine] | 61.3 | 92.2 |  | 
13 | COC(=O)c1ccccc1CN1Cc2c(sc3ccc(Cl)cc23)C(c2ccccc2)C1C (centres unmarked) [Example 13, 8-Chloro-3-methyl-2-o.methoxycarbonylbenzyl-4-phenyl-1,2,3,4-tetrahydro-benzo(b)thieno[3,2-c]pyridine] | 62.1 | 95 |  | 
14 | CC1C(c2ccccc2)c2sc3ccc(Cl)cc3c2CN1Cc1ccccc1C(=O)O (centres unmarked) [Example 14, 2-o.Carboxybenzyl-8-chloro-3-methyl-4-phenyl-1,2,3,4-tetrahydro-benzo(b)thieno[3,2-c]pyridine] | 60.6 | 93.8 |  | 
15 | CCCCN1Cc2c(sc3ccc(Cl)cc23)C(c2ccccc2)C1C (centres unmarked) [Example 15, 2-Butyl-8-chloro-3-methyl-4-phenyl-1,2,3,4-tetrahydro-benzo(b)thieno[3,2-c]pyridine] | 60.1 | 92.6 |  | 
16 | CC1C(c2ccccc2)c2sc3ccccc3c2CN1CCc1ccccc1 (centres unmarked) [Example 16, 3-Methyl-2-phenethyl-4-phenyl-1,2,3,4-tetrahydro-benzo(b)-thieno[3,2-c]pyridine] | 62.7 | 93.2 |  | 
17 | CC1C(c2ccccc2)c2sc3ccc(Cl)cc3c2CN1Cc1cccnc1 (centres unmarked) [Example 17, 8-Chloro-3-methyl-4-phenyl-2-(3-pyridyl)methyl-1,2,3,4-tetrahydro-benzo(b)thieno[3,2-c]pyridine] | 63.5 | 90.4 |  | 
18 | CC1C(c2ccccc2)c2sc3ccccc3c2CN1Cc1ccccn1 (centres unmarked) [Example 18, 3-Methyl-4-phenyl-2-(2-pyridyl)methyl-1,2,3,4-tetrahydro-benzo(b)thieno[3,2-c]pyridine] | 61.3 | 91.7 |  | 
19 | CC1C(c2ccccc2)c2sc3ccc(Cl)cc3c2CN1Cc1ccncc1 (centres unmarked) [Example 19, 8-Chloro-3-methyl-4-phenyl-2-(4-pyridyl)methyl-1,2,3,4,-tetrahydrobenzo(b)thieno[3,2-c]pyridine] | 62.4 | 91.9 |  | 
